Experimental data from patent US20240316146A1, “METHODS OF REDUCING NEUROPATHY AND NEUROPATHIC SYMPTOMS AND TREATING CANCER” (Bexion Pharmaceuticals Inc., priority 2021, published 2024).

Test system: mouse oxaliplatin model of chemotherapy-induced neuropathy
Assay: Static mechanical (tactile) allodynia, von Frey filaments, Study 1
Assay type: in vivo
Protocol: 60 adult male C57/BL6 mice (Charles River), 6-7 weeks of age, were housed in groups of 5 in Perspex cages, in a controlled environment of constant temperature and humidity (temperature: 21±1° C., light: dark cycle of 12:12 hours), with food and water available ad libitum. Animals were allowed to recover from transportation for at least one week before commencing experiments.
Static mechanical tactile allodynia: Static mechanical (tactile) allodynia was assessed by measurement of withdrawal threshold using calibrated (force; g) von-Frey monofilaments (Touch-Test Sensory Evaluator; Scientific Marketing Associates) applied to the plantar surface of the left hind-paw. The animals were placed in individual Perspex boxes on a raised metal mesh for 30-40 min before the test to habituate. A series of graduated von Frey hairs (0.07, 0.16, 0.4, 0.6 and 1 g) were applied in sequence with a protocol of 1 sec on 1 sec off repeated 10 times. Each hair was applied perpendicularly to the center of the ventral surface of the paw until it bent slightly. The force applied to the hind-paw of the animal to induce 5 responses out of 10 trials was recorded as paw withdrawal threshold (PWT) 50%.
Warm vials of BQX-350 were brought to room temperature and reconstituted with 4 mL water for injection via syringe. The vials were gently agitated and/or vortexed for 15-20 sec and allowed to sit at room temp for 5 mins. The rehydrated solution contained 2.2 mg/mL SapC (8.8 mg SapC per vial). About […] of the formulation was injected to achieve a target dose of 20 mg/kg in each mouse. Pregabalin was reconstituted in water and injected to achieve a target dose of 30 mg/kg in each mouse.
A two-way repeated measures ANOVA with ‘treatment’ as a between subjects effect, and ‘day’ as a within subjects effect was used (using GraphPad Prism version 9.0 for Windows, GraphPad Software, San Diego California USA), followed by Dunnett's multi comparisons test. Data is presented as mean±SEM.

[1] = oxaliplatin 10 mg/kg IP day 0 (+vehicle, BXQ-350 20 mg/kg IP or pregabalin 30 mg/kg IP), group mean

O=C([O-])C(=O)[O-].[NH-][C@@H]1CCCC[C@H]1[NH-].[Pt+4] (relative stereo) [Oxaliplatin, cis-[(1R,2R)-1,2-cyclohexanediamine-N,N′][oxalato(2)-O,O′] platinum]
PWT 50% (g) Baseline [1]: 0.780 g | PWT 50% (g) D3 [1]: 0.423 g | PWT 50% (g) D5 [1]: 0.357 g | PWT 50% (g) D7 [1]: 0.369 g | PWT 50% (g) D9 [1]: 0.373 g | mechanical allodynia (in words) (oxaliplatin treated animals, day 3 to day 9, BXQ-350 20 mg/kg, pregabalin 30 mg/kg 2 hours before assessment): induced consistent and persistent mechanical allodynic response
